These results are taken from US8653096B2, “Chemokine receptor antagonists and methods of use thereof” (Millennium Pharmaceuticals, Inc., priority 2001, dated 2014).

The target of the test is T1, RANTES/MIP-1α chemokine receptor (CCR1) in THP-1 cell membranes (Homo sapiens, UniProt P32246).
T1 construct: Membranes were prepared from THP-1 cells (ATCC #TIB202); host or cells: THP-1 cells (membrane preparation)
T1 sequence (P32246 1-355): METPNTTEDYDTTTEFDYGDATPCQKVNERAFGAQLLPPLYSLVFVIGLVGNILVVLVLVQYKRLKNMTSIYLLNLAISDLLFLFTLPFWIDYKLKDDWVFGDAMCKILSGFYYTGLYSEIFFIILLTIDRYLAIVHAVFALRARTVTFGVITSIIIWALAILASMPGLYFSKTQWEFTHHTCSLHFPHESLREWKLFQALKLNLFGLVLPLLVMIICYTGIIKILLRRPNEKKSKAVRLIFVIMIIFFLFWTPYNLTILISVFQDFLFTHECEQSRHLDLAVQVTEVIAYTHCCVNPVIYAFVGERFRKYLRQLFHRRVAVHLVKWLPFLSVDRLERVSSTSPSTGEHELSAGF
The experiment in a line: Receptor binding assay: 125I-RANTES or 125I-MIP-1α binding to THP-1 cell membranes. To be noted: inhibitor concentration required for 50% inhibition of specific binding; 125I-RANTES or 125I-MIP-1α as ligand, THP-1 cell membranes; read-out: IC50. The procedure:
Membranes were prepared from THP-1 cells (ATCC #TIB202). Cells were harvested by centrifugation, washed twice with PBS (phosphate-buffered saline), and the cell pellets were frozen at −70 to −85° C. The frozen pellet was thawed in ice-cold lysis buffer consisting of 5 mM HEPES (N-2-hydroxyethylpiperazine-N′-2-ethane-sulfonic acid) pH 7.5, 2 mM EDTA (ethylenediaminetetraacetic acid), 5 μg/ml each aprotinin, leupeptin, and chymostatin (protease inhibitors), and 100 μg/ml PMSF (phenyl methane sulfonyl fluoride—also a protease inhibitor), at a concentration of 1 to 5×10^7 cells/ml. This procedure results in cell lysis. The suspension was mixed well to resuspend all of the frozen cell pellet. Nuclei and cell debris were removed by centrifugation of 400×g for 10 minutes at 4° C. The supernatant was transferred to a fresh tube and the membrane fragments were collected by centrifugation at 25,000×g for 30 minutes at 4° C. The supernatant was aspirated and the pellet was resuspended in freezing buffer consisting of 10 mM HEPES pH 7.5, 300 mM sucrose, 1 μg/ml each aprotinin, leupeptin, and chymostatin, and 10 μg/ml PMSF (approximately 0.1 ml per each 10^8 cells). All clumps were resolved using a minihomogenizer, and the total protein concentration was determined using a protein assay kit (Bio-Rad, Hercules, Calif., cat #500-0002). The membrane solution was then aliquoted and frozen at −70 to −85° C. until needed.
Binding Assays utilized the membranes described above. […] The binding reactions were performed in 60 to 100 μl of a binding buffer consisting of 10 mM HEPES pH 7.2, 1 mM CaCl2, 5 mM MgCl2, and 0.5% BSA (bovine serum albumin), for 60 min at room temperature. The binding reactions were terminated by harvesting the membranes by rapid filtration through glass fiber filters (GF/B or GF/C, Packard) which were presoaked in 0.3% polyethyleneimine. The filters were rinsed with approximately 600 μl of binding buffer containing 0.5 M NaCl, dried, and the amount of bound radioactivity was determined by scintillation counting in a Topcount beta-plate counter.
Specific binding is defined as the total binding minus the non-specific binding; non-specific binding is the amount of cpm still detected in the presence of excess unlabeled Rantes or MIP-1α.
By IC50 is commonly meant the concentration needed to halve the response being measured. Regarding `COC(=O)CC1CN(CCC=C2c3cc(C(C)(C)O)ccc3OCc3ncccc32)CCN1c1ccc(Cl)cc1` (centres unmarked) [Example 558, (1-(4-Chloro-phenyl)-4-{3-[7-(1-hydroxy-1-methyl-ethyl)-11H-10-oxa-1-aza-dibenzo[a,d]cyclohepten-5-ylidene]-propyl}-piperazin-2-yl)-acetic acid methyl ester], the IC50 is < 10000 nM.

As to `CC(C)(Oc1ccc2c(c1)C(=CCCN1CCC(O)(c3ccc(Cl)cc3)C(C)(C)C1)c1cccnc1CO2)C(N)=O` (centres unmarked) [Example 513, 2-(5-{3-[4-(4-Chloro-phenyl)-4-hydroxy-3,3-dimethyl-piperidin-1-yl]-propylidene}-5,11-dihydro-10-oxa-1-aza-dibenzo[a,d]cyclohepten-7-yloxy)-2-methyl-propionamide], the IC50 was < 1000 nM.

Turning to `CC(C)(O)c1ccc2c(c1)C(=CCCN1CCC(CO)(c3ccc(Cl)cc3)CC1)c1cccnc1CO2` [Example 461, 2-(5-{3-[4-(4-Chloro-phenyl)-4-hydroxymethyl-piperidin-1-yl]-propylidene}-5,11-dihydro-10-oxa-1-aza-dibenzo[a,d]cyclohepten-7-yl)-propan-2-ol], the IC50 was < 10000 nM.

As for `OC1(c2ccc(Cl)cc2)CCN(CCC=C2c3ccccc3CCc3ccccc32)CC1` [Example 1, 4-(4-Chlorophenyl)-1-[3-(10,11-dihydro-5H-dibenzo[a,d]cycloheptene-5-ylidene)propyl]piperidin-4-ol], the IC50 is < 1000 nM.

`COc1ccc2c(c1)C(=CCCN1CCC(n3c(=O)[nH]c4ccccc43)CC1)c1cccnc1CO2` [Example 67, 1-[3-(5,11-Dihydro-7-methoxy[1]benzoxepino[2,3-b]pyridin-5-ylidene)propyl]-4-(2-keto-1-benzimidazolinyl)piperidine]: the half-maximal inhibitory concentration (IC50) is < 1000 nM.

On to “1-[3-(7-Carboxymethyloxy-5,11-dihydro[1]benzoxepino[2,3-b]pyridin-5-ylidene)propyl]-4-(4-chlorophenyl)piperidin-4-ol [Example 133]”, for which the IC50 is < 1000 nM.

Regarding `COC(=O)c1cc(Cl)ccc1N1CCN(CCC=C2c3cc(C(C)(C)O)ccc3OCc3ncccc32)CC1` [Example 541, 5-Chloro-2-(4-{3-[7-(1-hydroxy-1-methyl-ethyl)-11H-10-oxa-1-aza-dibenzo[a,d]cyclohepten-5-ylidene]-propyl}-piperazin-1-yl)-benzoic acid methyl ester], the IC50 was < 10000 nM.

With `CC(C)(O)COc1ccc2c(c1)C(=CCCN1CCC(O)(c3ccc(Cl)cc3)CC1)c1cccnc1CO2` [Example 200, 4-(4-Chlorophenyl)-1-[3-(7-(1-(2-methyl-2-hydroxy)propyl)oxy-5,11-dihydro[1]benzoxepino[2,3-b]pyridin-5-ylidene)propyl]piperidin-4-ol], the IC50 was < 1000 nM.

Turning to `COC(=O)CN(Cc1ccc(Cl)cc1)C1CCN(CCC=C2c3cc(C(C)(C)O)ccc3OCc3ncccc32)C1` (centres unmarked) [Example 536, [(4-Chloro-benzyl)-(1-{3-[7-(1-hydroxy-1-methyl-ethyl)-11H-10-oxa-1-aza-dibenzo[a,d]cyclohepten-5-ylidene]-propyl}-pyrrolidin-3-yl)-amino]-acetic acid methyl ester], the IC50 is < 1000 nM.

In the case of `CC(C)(O)c1ccc2c(c1)C(=CCCN1CCC(N3C(=O)OCC3Cc3ccc(Cl)cc3)CC1)c1cccnc1CO2` (centres unmarked) [Example 498, 4-(4-Chloro-benzyl)-3-(1-{3-[7-(1-hydroxy-1-methyl-ethyl)-11H-10-oxa-1-aza-dibenzo[a,d]cyclohepten-5-ylidene]-propyl}-piperidin-4-yl)-oxazolidin-2-one], the IC50 was < 10000 nM.

As for `CC(C)(O)c1ccc2c(c1)C(=CCCN1CC[C@@H](N3CC(=O)Nc4cc(Cl)ccc4C3)C1)c1cccnc1CO2` [Example 534, (R)-8-Chloro-4-(1-{3-[7-(-hydroxy-1-methyl-ethyl)-11H-10-oxa-1-aza-dibenzo[a,d]cyclohepten-5-ylidene]-propyl}-pyrrolidine-3-yl)-1,3,4,5-tetrahydro-benzo[e][1,4]diazepin-2-one], the IC50 is < 1000 nM.

Consider `CC(C)(O)c1ccc2c(c1)C(=CCCN1CCC(N(CC(=O)O)Cc3ccc(Cl)cc3)C1)c1cccnc1CO2` (centres unmarked) [Example 537, [(4-Chloro-benzyl)-(1-{3-[7-(1-hydroxy-1-methyl-ethyl)-11H-10-oxa-1-aza-dibenzo[a,d]cyclohepten-5-ylidene]-propyl}-pyrrolidin-3-yl)-amino]-acetic acid], for which the 50% inhibitory concentration (IC50) was < 1000 nM.

With `C[C@@H]1CN(CCC=C2c3cc(C(C)(C)O)ccc3OCc3ncccc32)CCN1c1ccc(Cl)cc1` [Example 557, 2-(5-{3-[4-(4-Chloro-phenyl)-3-(R)-methyl-piperazin-1-yl]-propylidene}-5,11-dihydro-10-oxa-1-aza-dibenzo[a,d]cyclohepten-7-yl)-propan-2-ol], the IC50 is < 1000 nM.

For “4-(p-Chloroanilino)-1-[3-(5,11-dihydro-7-methoxy[1]benzoxepino[2,3-b]pyridin-5-ylidene)propyl]piperidine [Example 86]”, the IC50 is > 10000 nM.

Regarding `CN1C(=O)c2ccccc2C(=CCCN2CCC(O)(c3ccc(Cl)cc3)CC2)c2cccnc21` [Example 56, 4-(4-Chlorophenyl)-1-[3-(10,11-dihydro-11-methyl-10-oxo-5H-pyrido[2,3-c][2]benzazepin-5-ylidene)propyl]piperidin-4-ol], the IC50 is < 1000 nM.

On to `CC(C)(Oc1ccc2c(c1)C(=CCCN1CCC(O)(c3ccc(Cl)cc3)C(C)(C)C1)c1cccnc1CO2)C(=O)O` (centres unmarked) [Example 512, 2-(5-{3-[4-(4-Chloro-phenyl)-4-hydroxy-3,3-dimethyl-piperidin-1-yl]-propylidene}-5,11-dihydro-10-oxa-1-aza-dibenzo[a,d]cyclohepten-7-yloxy)-2-methyl-propionic acid], for which the IC50 is < 1000 nM.

For the compound `CCOC(=O)COCC1(C)CN(CCC=C2c3cc(C(C)(C)O)ccc3OCc3ncccc32)CCC1(O)c1ccc(Cl)cc1` (centres unmarked) [Example 485, (4-(4-Chloro-phenyl)-4-hydroxy-1-{3 [7-(1-hydroxy-1-methyl-ethyl)-11H-10-oxa-1-aza-dibenzo[a,d]cyclohepten-5-ylidene]-propyl}-3-methyl-piperidin-3-ylmethoxy)-acetic acid ethyl ester], the IC50 was < 1000 nM.

“4-(4-Chlorophenyl)-1-[3-(5,11-dihydro-7-(2-morpholinoethyl)oxy[1]benzoxepino[2,3-b]pyridin-5-ylidene)propyl]piperidin-4-ol [Example 52]”: the concentration for half-maximal inhibition (IC50) was < 1000 nM.

Turning to `CC(C)(O)c1ccc2c(c1)C(=CCCN1CCC(N(Cc3ccc(Cl)cc3)C(=O)NC3CCCCC3)C1)c1cccnc1CO2` (centres unmarked) [Example 568, 1-(4-Chloro-benzyl)-3-cyclohexyl-1-(1-{3-[7-(1-hydroxy-1-methyl-ethyl)-11H-10-oxa-1-aza-dibenzo[a,d]cyclohepten-5-ylidene]-propyl}-pyrrolidin-3-yl)-urea], the IC50 is < 1000 nM.

Take “4-(4-Chlorophenyl)-1-[3-(5,11-dihydro-7-propoxy[1]benzoxepino[2,3-b]pyridin-5-ylidene)propyl]piperidin-4-ol [Example 128]”: the 50% inhibitory concentration (IC50) was < 1000 nM.

Regarding “1-{3-[7-(1-Hydroxy-1-methyl-ethyl)-11H-10-oxa-1-aza-dibenzo[a,d]cyclohepten-5-ylidene]-propyl}-4-phenyl-piperidin-4-ol [Example 488]”, the IC50 is < 1000 nM.

In the case of `C=C(C)c1ccc2c(c1)C(=CCCN1CCC(c3ccc(Cl)cc3)(C(C)O)CC1)c1cccnc1CO2` (centres unmarked) [Example 499, 1-{4-(4-Chloro-phenyl)-1-[3-(7-isopropenyl-11H-10-oxa-1-aza-dibenzo[a,d]cyclohepten-5-ylidene)-propyl]-piperidin-4-yl}-ethanol], the IC50 is < 10000 nM.

Take “4-(3,4-difluorophenyl)-1-[3-(5,11-dihydro-7-methoxy[1]benzoxepino[2,3-b]pyridin-5-ylidene)propyl]piperidin-4-ol [Example 144]”: the IC50 is < 1000 nM.
